Measured values reported in patent US20240391862A1, “(1,4,5-TRISUBSTITUTED-1H-PYRAZOL-3-YL)OXY-2-ALKOXY ALKYL ACIDS AND THEIR DERIVATIVES, THEIR SALTS AND THEIR USE AS HERBICIDAL AGENTS” (Bayer AKtiengesellschaft, priority 2021, published 2024).

Assays:
TRZAS = test: Post-emergence herbicidal effect and crop plant compatibility, greenhouse pot test; type: in vivo, Triticum aestivum; settings: 20 g/ha, one-leaf stage, rated visually after about 3 weeks vs untreated controls; for percent crop injury (phytotoxicity) to wheat, post-emergence at 20 g/ha: Triticum aestivum, 504 h, read-out: Post-emergence effect at 20 g/ha against TRZAS in %
In short: (§1)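 Visual % activity scored roughly 3 weeks post-spray against untreated plants, where 100% means death and 0% equals control. Plants were treated at the one-leaf stage, 2 to 3 weeks after sowing in sandy loam, at 20 to 320 g/ha.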

ORYSA = test: as above; type: in vivo, Oryza sativa; settings: for Post-emergence effect against ORYSA: visual rating about 3 weeks after treatment, crop plant; for Post-emergence effect at 320 g/ha against ORYSA in %: one-leaf stage, rated visually after about 3 weeks vs untreated controls
Description: • ALOMY: Alopecurus myosuroides SETVI: Setaria viridis • AVEFA: Avena fatua POLCO: Fallopia convolvulus • AMARE: Amaranthus retroflexus ECHCG: Echinochloa crus-galli • LOLRJ: Lolium rigidum STEME: Stellaria media • VERPE: Veronica persica MATIN: Tripleurospermum inodorum • DIGSA: Digitaria sanguinalis ABUTH: Abutylon threophrasti • TRZAS: Triticum aestivum VIOTR: Viola tricolor • BRSNW: Brassica napus ZEAMX: Zea mays • PHBPU: Ipomoea purpurea GLXMA: Glycine max • ORYSA: Oryza sativa HORMU: Hordeum murinum
Seeds of monocotyledonous and dicotyledonous weeds and crop plants are placed in sandy loam in plastic or organic planting pots, covered with soil and cultivated in a greenhouse under controlled growth conditions. 2 to 3 weeks after sowing, the trial plants are treated at the one-leaf stage. The compounds of the invention, formulated in the form of wettable powders (WP) or as emulsion concentrates (EC), are then sprayed onto the green parts of the plants as aqueous suspension or emulsion with addition of 0.5% additive at a water application rate of 600 l/ha (converted). After the test plants have been kept in the greenhouse under optimum growth conditions for about 3 weeks, the activity of the preparations is rated visually in comparison to untreated controls. For example, 100% activity=the plants have died, 0% activity=like control plants.
Tables 20a to 38c below show the effects/crop compatibilities of selected compounds of the general formula (I) on various harmful plants at an application rate corresponding to 20 to 320 g/ha, which were obtained by the trial procedure specified above.

ABUTH = test: Post-emergence herbicidal effect, greenhouse pot test; type: in vivo, Abutilon theophrasti; settings: visual rating about 3 weeks after treatment
In short: (§2)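 Greenhouse pot plants in sandy loam receive a one-leaf-stage spray at 20 to 320 g/ha. Activity is assessed visually around 3 weeks afterwards on a 0–100% scale, where 100% means the plants have died.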

ALOMY = test: as above; type: in vivo, Alopecurus myosuroides; settings: 320 g/ha, visual rating about 3 weeks after treatment
In short: as §2

AMARE = test: as above; type: in vivo, Amaranthus retroflexus; settings: visual rating about 3 weeks after treatment; for pest or weed control at 320 g/ha: Amaranthus retroflexus, 504 h, read-out: Post-emergence effect against AMARE
In short: as §2

AVEFA = test: as above; type: in vivo, Avena fatua; settings: visual rating about 3 weeks after treatment
In short: as §2

DIGSA = test: as above; type: in vivo, Digitaria sanguinalis; settings: 320 g/ha, visual rating about 3 weeks after treatment
In short: as §2

ECHCG = test: as above; type: in vivo, Echinochloa crus-galli
In short: as §2

MATIN = test: as above; type: in vivo, Tripleurospermum inodorum
In short: as §2

PHBPU = test: as above; type: in vivo, Ipomoea purpurea
In short: as §2

POLCO = test: as above; type: in vivo, Fallopia convolvulus; settings: for pest or weed control at 320 g/ha: Fallopia convolvulus, 504 h, read-out: Post-emergence effect against POLCO in %
In short: as §2

SETVI = test: as above; type: in vivo, Setaria viridis
In short: as §2

VERPE = test: as above; type: in vivo, Veronica persica
In short: as §2

VIOTR = test: as above; type: in vivo, Viola tricolor
In short: as §2

ZEAMX = test: Post-emergence herbicidal effect and crop plant compatibility, greenhouse pot test; type: in vivo, Zea mays; settings: one-leaf stage, rated visually after about 3 weeks vs untreated controls
In short: as §1

LOLRI = test: Post-emergence herbicidal effect, greenhouse pot test; type: in vivo, Lolium rigidum; settings: Lolium rigidum, 504 h, 320 g/ha, read-out: Post-emergence effect against LOLRI in %
In short: as §2

[1] = Echinochloa crus-galli, 504 h, 320 g/ha, read-out: Post-emergence effect against ECHCG in %
[2] = Ipomoea purpurea, 504 h, 320 g/ha, read-out: Post-emergence effect against PHBPU in %
[3] = Setaria viridis, 504 h, 320 g/ha, read-out: Post-emergence effect against SETVI in %

COC(=O)C(OC)Oc1nn(-c2cccc(Cl)c2F)c(-c2cncc(F)c2)c1I (centres unmarked) [Example I-19]
Post-emergence effect at 20 g/ha against TRZAS in % (TRZAS): 20%
Post-emergence effect against ORYSA (ORYSA; 20 g/ha): 0%
Post-emergence effect against ORYSA (ORYSA; 80 g/ha): 0%
Post-emergence effect at 320 g/ha against ORYSA in % (ORYSA): 20%
Post-emergence effect against ABUTH (ABUTH; 80 g/ha): 90%
Post-emergence effect against ABUTH (ABUTH; 320 g/ha): 90%
Post-emergence effect against ALOMY (ALOMY): 80%
Post-emergence effect against AMARE (AMARE; 80 g/ha): 80%
Post-emergence effect against AMARE (AMARE; 320 g/ha): 80%
Post-emergence effect against AVEFA (AVEFA; 320 g/ha): 80%
Post-emergence effect against DIGSA (DIGSA): 90%
Post-emergence effect against ECHCG in % (ECHCG; 80 g/ha): 80%
Post-emergence effect against ECHCG in % (ECHCG; 320 g/ha): 90%
Post-emergence effect against MATIN in % (MATIN; 320 g/ha): 80%
Post-emergence effect against PHBPU in % (PHBPU; 20 g/ha): 80%
Post-emergence effect against PHBPU in % (PHBPU; 80 g/ha): 90%
Post-emergence effect against PHBPU in % (PHBPU; 320 g/ha): 90%
Post-emergence effect against POLCO in % (POLCO; 80 g/ha): 80%
Post-emergence effect against POLCO in % (POLCO; 320 g/ha): 80%
Post-emergence effect against SETVI in % (SETVI; 320 g/ha): 80%
Post-emergence effect against VERPE in % (VERPE; 80 g/ha): 80%
Post-emergence effect against VERPE in % (VERPE; 320 g/ha): 80%
Post-emergence effect against VIOTR in % (VIOTR; 80 g/ha): 80%
Post-emergence effect against VIOTR in % (VIOTR; 320 g/ha): 80%

COC(Oc1nn(-c2ccccc2F)c(-c2ccc(F)nc2)c1Br)C(=O)O (centres unmarked) [Example I-24]
Post-emergence effect at 20 g/ha against ZEAMX in % (ZEAMX; 20 g/ha): 0%
Post-emergence effect at 80 g/ha against ZEAMX in % (ZEAMX; 80 g/ha): 10%
plant injury at 320 g/ha (ZEAMX; Zea mays, 504 h, 320 g/ha, read-out: Post-emergence effect at 320 g/ha against ZEAMX in %): 20%
Post-emergence effect at 20 g/ha against TRZAS in % (TRZAS): 0%
Post-emergence effect at 320 g/ha against ORYSA in % (ORYSA): 10%

COC(=O)C(OC)Oc1nn(-c2cc(F)ccc2F)c(-c2cncc(F)c2)c1I (centres unmarked) [Example I-28]
percent crop injury (phytotoxicity) to wheat, post-emergence at 20 g/ha (TRZAS): 20%
Post-emergence effect at 320 g/ha against ORYSA in % (ORYSA): 20%
pest or weed control at 80 g/ha (ABUTH; Abutilon theophrasti, 504 h, 80 g/ha, read-out: Post-emergence effect against ABUTH): 90%
pest or weed control at 320 g/ha (ABUTH; Abutilon theophrasti, 504 h, 320 g/ha, read-out: Post-emergence effect against ABUTH): 100%
pest or weed control at 320 g/ha (ALOMY; Alopecurus myosuroides, 504 h, read-out: Post-emergence effect against ALOMY): 90%
pest or weed control at 320 g/ha (AMARE; 320 g/ha): 80%
pest or weed control at 80 g/ha (AVEFA; Avena fatua, 504 h, 80 g/ha, read-out: Post-emergence effect against AVEFA): 80%
pest or weed control at 320 g/ha (AVEFA; Avena fatua, 504 h, 320 g/ha, read-out: Post-emergence effect against AVEFA): 90%
pest or weed control at 320 g/ha (DIGSA; Digitaria sanguinalis, 504 h, read-out: Post-emergence effect against DIGSA): 80%
pest or weed control at 80 g/ha (ECHCG; Echinochloa crus-galli, 504 h, 80 g/ha, read-out: Post-emergence effect against ECHCG in %): 90%
pest or weed control at 320 g/ha (ECHCG; [1]): 90%
pest or weed control at 320 g/ha (LOLRI): 90%
pest or weed control at 20 g/ha (MATIN; Tripleurospermum inodorum, 504 h, 20 g/ha, read-out: Post-emergence effect against MATIN in %): 80%
pest or weed control at 80 g/ha (MATIN; Tripleurospermum inodorum, 504 h, 80 g/ha, read-out: Post-emergence effect against MATIN in %): 90%
pest or weed control at 320 g/ha (MATIN; Tripleurospermum inodorum, 504 h, 320 g/ha, read-out: Post-emergence effect against MATIN in %): 90%
pest or weed control at 20 g/ha (PHBPU; Ipomoea purpurea, 504 h, 20 g/ha, read-out: Post-emergence effect against PHBPU in %): 80%
pest or weed control at 80 g/ha (PHBPU; Ipomoea purpurea, 504 h, 80 g/ha, read-out: Post-emergence effect against PHBPU in %): 90%
pest or weed control at 320 g/ha (PHBPU; [2]): 90%
pest or weed control at 320 g/ha (POLCO; 320 g/ha): 80%
pest or weed control at 80 g/ha (SETVI; Setaria viridis, 504 h, 80 g/ha, read-out: Post-emergence effect against SETVI in %): 80%
pest or weed control at 320 g/ha (SETVI; [3]): 90%
pest or weed control at 320 g/ha (VERPE; Veronica persica, 504 h, 320 g/ha, read-out: Post-emergence effect against VERPE in %): 80%
pest or weed control at 20 g/ha (VIOTR; Viola tricolor, 504 h, 20 g/ha, read-out: Post-emergence effect against VIOTR in %): 80%
pest or weed control at 80 g/ha (VIOTR; Viola tricolor, 504 h, 80 g/ha, read-out: Post-emergence effect against VIOTR in %): 90%
pest or weed control at 320 g/ha (VIOTR; Viola tricolor, 504 h, 320 g/ha, read-out: Post-emergence effect against VIOTR in %): 90%

COC(=O)C(OC)Oc1nn(-c2cnccn2)c(-c2ccc(F)nc2)c1Br (centres unmarked) [Example I-36]
percent crop injury (phytotoxicity) to wheat, post-emergence at 20 g/ha (TRZAS): 20%
Post-emergence effect at 320 g/ha against ORYSA in % (ORYSA): 20%
pest or weed control at 320 g/ha (AMARE; 320 g/ha): 80%
pest or weed control at 320 g/ha (ECHCG; [1]): 90%
pest or weed control at 320 g/ha (LOLRI): 80%
pest or weed control at 320 g/ha (PHBPU; [2]): 80%
pest or weed control at 320 g/ha (POLCO; 320 g/ha): 80%
pest or weed control at 320 g/ha (SETVI; [3]): 80%
